Measurements from patent US20040131545A1, “Amyloid plaque aggregation inhibitors and diagnostic imaging agents” (Trustees of the University of Pennsylvania, priority 2001, published 2004).

How the values were obtained:
aggregates of Aβ(1-40) = target: T1, aggregates of Aβ(1-40) (Homo sapiens, UniProt P05067); assay: Inhibition of [125I]3 binding to aggregated Aβ(1-40) peptide in solution; conditions: 25° C.; mean±SEM of three independent experiments; read-out: Inhibition constants (Ki) on ligand binding to aggregates of Aβ(1-40) vs [^125I]3
T1 construct: The solid forms of peptides Aβ(1-40) and Aβ(1-42) were purchased; purchased Bachem (King of Prussia, Pa.)
Experimental: (§1) The solid forms of peptides Aβ(1-40) and Aβ(1-42) were purchased from Bachem (King of Prussia, Pa.). Aggregation of peptides were carried out by gently dissolving the peptide [0.5 mg/mL for Aβ(1-40) and 0.25 mg/mL for Aβ (1-42) in a buffer solution (pH 7.4) containing 10 mM sodium phosphate and 1 mM EDTA. The solutions were incubated at 37° C. for 36-42 h with gentle and constant shaking. Binding studies were carried out in 12×75 mm borosilicate glass tubes according to the procedure described with some modifications (Klunk, W. E., et al., Biol. Psychiatry 35:627 (1994)). Aggregated fibrils (10-50 nM in the final assay mixture) were added to the mixture containing […] of radioligands (0.01-0.5 nM) in 40% EtOH and 10% EtOH in a final volume of 1 mL for saturation studies. […] For inhibition studies, 1 mL of the reaction mixture contained […] of inhibitors (10-5-10-10 M in 10% EtOH) and 0.05 nM radiotracer in 40% EtOH. The mixture was incubated at room temperature for 3 h and the bound and the free radioactivity were separated by vacuum filtration through Whatman GF/B filters using a Brandel M-24R cell harvester followed by 2×3 mL washes of 10% ethanol at room temperature. Filters containing the bound I-125 ligand were counted in a gamma counter (Packard 5000) with 70% counting efficiency. The results of saturation and inhibition experiments were subjected to nonlinear regression analysis using software EBDA52 by which Kd and Ki values were calculated.
(§2) Values are the mean±SEM of three independent experiments, each in duplicates.

aggregates of Aβ(1-42) = target: T2, aggregates of Aβ(1-42) (Homo sapiens, UniProt P05067); assay: Inhibition of [125I]3 binding to aggregated Aβ(1-42) peptide in solution; conditions: 25° C.; mean±SEM of three independent experiments; read-out: Inhibition constants (Ki) on ligand binding to aggregates of Aβ(1-42) vs [^125I]3
T2 construct: The solid forms of peptides Aβ(1-40) and Aβ(1-42) were purchased; purchased Bachem (King of Prussia, Pa.)
Experimental: as §1, §2

fibrillar AP aggregates = fibrillar AP aggregates (Homo sapiens, UniProt P05067); conditions: Mathis et al. 1997; read-out: inhibition constants (K′) for binding to fibrillar AP aggregates; cited from earlier work
[1] = In vivo biodistribution in normal mice after iv injection; set-up: species or system ICR mice; conditions: for Initial brain uptake / time at which brain uptake peaked / maximum brain uptake: mice; for Initial brain uptake: after an iv injection; for time at which brain uptake peaked / maximum brain uptake / Blood / Brain / Heart / Liver: iv; for maximum brain uptake: peak at 60 min; for Blood / Brain / Heart / Liver: normal mice
Experimental: While under ether anesthesia, 0.15 mL of a saline solution containing labeled agents ([…]) was injected directly into the tail vein of ICR mice (2-3 month-old, average weight 20-30 g). The mice were sacrificed by cardiac excision at various time points post injection. The organs of interest were removed and weighed, and the radioactivity was counted with an automatic gamma counter (Packard 5000). The percentage dose per organ was calculated by a comparison of the tissue counts to suitably diluted aliquots of the injected material. Total activities of blood and muscle were calculated under the assumption that they were 7% and 40% of the total body weight, respectively.

[2] = Partition coefficient determination (1-octanol/buffer); assay type: physicochemical; conditions: 1-octanol / 0.1 M phosphate buffer pH 7.4, [125I]tracer
Experimental: The test tube was vortexed for 3 min at room temperature, followed by centrifugation for 5 min. Two weighed samples (0.5 g each) from the 1-octanol and buffer layers were counted in a well counter. The partition coefficient was determined by calculating the ratio of cpm/g of 1-octanol to that of buffer. Samples from the 1-octanol layer were re-partitioned until consistent partitions of coefficient values were obtained. The measurement was done in triplicate and repeated three times.

T2 sequence (P05067 672-713 limits assumed): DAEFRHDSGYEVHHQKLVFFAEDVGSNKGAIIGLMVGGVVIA
T1 sequence (P05067 672-711 limits assumed): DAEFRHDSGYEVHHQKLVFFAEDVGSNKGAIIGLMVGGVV
Chain of fibrillar AP aggregates (P05067 672-711): as the sequence (P05067 672-711 limits assumed) above

For O=C(O)c1cc(/N=N/c2ccc(-c3ccc(/N=N/c4ccc(O)c(C(=O)O)c4)cc3)cc2)ccc1O [Chrysamine G, reference compound], the Ki (aggregates of Aβ(1-40)) is given as over 1000 nM, the Ki (aggregates of Aβ(1-42)) is given as over 2000 nM and the Ki (fibrillar AP aggregates) is given as 370 nM.

In the case of CN(C)c1ccc(-c2nc3ccc(Br)cc3s2)cc1 [Compound 1, 2-(4′-Dimethylaminophenyl)-6-bromobenzothiazole], the Ki (aggregates of Aβ(1-40)) is reported as 1.9 ± 0.3 nM and the Ki (aggregates of Aβ(1-42)) is reported as 0.8 ± 0.3 nM.

Work on CN(C)c1ccc(-c2nc3ccc(I)cc3s2)cc1 [Compound 3, 2-(4′-Dimethylaminophenyl)-6-iodobenzothiazole] yielded a Ki (aggregates of Aβ(1-40)) of 0.9 ± 0.2 nM, a Ki (aggregates of Aβ(1-42)) of 2.2 ± 0.4 nM and an Initial brain uptake [1] of 0.67 % dose/organ. For the same compound, the “time at which brain uptake peaked” value [1] was 60 min, the maximum brain uptake [1] was 1.57 % dose/organ and the “Partition Coefficient (PC)” value [2] was 70.

For CN1CCN(c2ccc(-c3nc4ccc(Br)cc4s3)cc2)CC1 [Compound 4, 2-[4′-(4″-Methylpiperazin-1-yl)-phenyl]-6-bromobenzothiazole], the Ki (aggregates of Aβ(1-40)) was 1.6 ± 0.5 nM and the Ki (aggregates of Aβ(1-42)) was 5 ± 0.8 nM.

In the case of CN1CCN(c2ccc(-c3nc4ccc(I)cc4s3)cc2)CC1 [Compound 6a, 2-[4′-(4″-Methylpiperazin-1-yl)-phenyl]-6-iodobenzothiazole], the Ki (aggregates of Aβ(1-40)) is reported as 5.4 ± 0.7 nM, the Ki (aggregates of Aβ(1-42)) is reported as 6.4 ± 0.7 nM and the Initial brain uptake [1] is reported as 1.50 % dose/organ. For the same compound, the “time at which brain uptake peaked” value [1] was 60 min, the maximum brain uptake [1] was 1.89 % dose/organ and the “Partition Coefficient (PC)” value [2] was 312.

CN(C)c1ccc(-c2nc3ccc([125I])cc3s2)cc1 [[^125I] Compound 3] showed a Blood ([1]; 2 min) of 15.74 ± 6.06 % dose/organ, a Brain ([1]; 2 min) of 0.67 ± 0.11 % dose/organ and a Heart ([1]; 2 min) of 1.79 ± 0.39 % dose/organ. For the same compound, the Liver ([1]; 2 min) was 31.62 ± 2.38 % dose/organ, the Blood ([1]; 30 min) was 3.26 ± 0.05 % dose/organ and the Brain ([1]; 30 min) was 0.97 ± 0.29 % dose/organ. It also gave a Heart ([1]; 30 min) of 0.20 ± 0.01 % dose/organ, a Liver ([1]; 30 min) of 10.93 ± 2.34 % dose/organ and a Blood ([1]; 60 min (1 hr)) of 3.79 ± 0.19 % dose/organ. It also gave a Brain ([1]; 60 min (1 hr)) of 1.57 ± 0.24 % dose/organ, a Heart ([1]; 60 min (1 hr)) of 0.17 ± 0.02 % dose/organ and a Liver ([1]; 60 min (1 hr)) of 9.21 ± 3.05 % dose/organ. The Blood ([1]; 6 h) was 1.44 ± 0.05 % dose/organ, the Brain ([1]; 6 h) was 0.65 ± 0.11 % dose/organ and the Heart ([1]; 6 h) was 0.05 ± 0.01 % dose/organ. It also gave a Liver ([1]; 6 h) of 1.52 ± 0.30 % dose/organ, a Blood ([1]; 24 h) of 0.29 ± 0.09 % dose/organ and a Brain ([1]; 24 h) of 0.04 ± 0.01 % dose/organ. For the same compound, the Heart ([1]; 24 h) was 0.01 ± 0.00 % dose/organ and the Liver ([1]; 24 h) was 0.30 ± 0.07 % dose/organ.

Work on CN1CCN(c2ccc(-c3nc4ccc([125I])cc4s3)cc2)CC1 [[^125I] Compound 6a] yielded a Blood ([1]; 2 min) of 8.02 ± 0.82 % dose/organ, a Brain ([1]; 2 min) of 1.50 ± 0.10 % dose/organ and a Heart ([1]; 2 min) of 2.19 ± 0.43 % dose/organ. The Liver ([1]; 2 min) was 28.84 ± 3.77 % dose/organ, the Blood ([1]; 30 min) was 5.15 ± 0.23 % dose/organ and the Brain ([1]; 30 min) was 1.59 ± 0.19 % dose/organ. For the same compound, the Heart ([1]; 30 min) was 0.69 ± 0.02 % dose/organ, the Liver ([1]; 30 min) was 21.22 ± 5.86 % dose/organ and the Blood ([1]; 60 min (1 hr)) was 4.16 ± 0.28 % dose/organ. For the same compound, the Brain ([1]; 60 min (1 hr)) was 1.89 ± 0.43 % dose/organ, the Heart ([1]; 60 min (1 hr)) was 0.66 ± 0.06 % dose/organ and the Liver ([1]; 60 min (1 hr)) was 17.20 ± 2.49 % dose/organ. For the same compound, the Blood ([1]; 6 h) was 1.49 ± 0.26 % dose/organ, the Brain ([1]; 6 h) was 1.08 ± 0.08 % dose/organ and the Heart ([1]; 6 h) was 0.22 ± 0.06 % dose/organ. It also gave a Liver ([1]; 6 h) of 5.79 ± 1.24 % dose/organ, a Blood ([1]; 24 h) of 0.41 ± 0.09 % dose/organ and a Brain ([1]; 24 h) of 0.91 ± 0.08 % dose/organ. The Heart ([1]; 24 h) was 0.08 ± 0.01 % dose/organ and the Liver ([1]; 24 h) was 3.05 ± 0.87 % dose/organ.
